Experimental data taken from patent US20250276029A1, “ANTIBACTERIAL AND ANTIOXIDANT COMPOSITION CONTAINING GRAPE CALLUS CULTURE MEDIUM AS ACTIVE INGREDIENT” (INGR INCORPORATED, priority 2021, published 2025).

Assays:
[1] = test system: P. acnes 3320 (KCTC 3320); assay: MIC for acne bacteria, P. acnes 3320; type: cell-based, Propionibacterium acnes; details: P. acnes 3320, 72 hours, anaerobic
Description: (§1) To confirm the antibacterial effect of grape callus culture solution on acne bacteria, Propionibacterium acnes (KCTC 3314, KCTC 3320, KCTC 5012) was cultured in RCM (Reinforced Clostridial Medium) at 37° C., anaerobic conditions. MIC is an index for measuring bacteriostatic characteristics of antibacterial substances, and after diluting the grape callus culture solution of the present invention to a concentration between […], the minimum concentration that inhibits the growth of three kinds of P. acnes was examined. Specifically, three kinds of P. acnes cultured in <3-1> were incubated in an incubator at 37° C. for 72 hours under anaerobic conditions in 5 ml of RCM liquid medium. In addition, a master plate was prepared at 8 concentrations by diluting ½ from the highest concentration to DW in 96 well plates. 50 μl of each diluted sample was then transferred to another 96-well plate. […] To measure the MIC, 0 hour OD600 nm was measured with a Microplate Reader. Then, after incubating the 96-well plate in 72-hour 37° C., incubation under anaerobic conditions, measuring OD600 nm for 72 hours with a Microplate Reader, subtracting the 0-hour OD value from the 72-hour OD value, the growth of three P. acnes according to control and sample concentration was compared, and antibacterial activity was confirmed through OD value comparison.

[2] = test system: P. acnes 3320 (KCTC 3320); assay: MBC analysis for acne bacteria, P. acnes 3320; type: cell-based, Propionibacterium acnes; details: for MBC, concentration of highest growth inhibition effect: P. acnes 3320, 72-hour; for MBC, concentration of highest growth inhibitory effect: P. acnes 3320, 48 hr
Description: (§2) To confirm the antibacterial effect of grape callus culture solution on acne bacteria, Propionibacterium acnes (KCTC 3314, KCTC 3320, KCTC 5012) was cultured in RCM (Reinforced Clostridial Medium) at 37° C., anaerobic conditions. The Minimum Bactericidal Concentration (MBC) is an indicator measuring the bactericidal properties of an antibacterial substance, and the grape callus culture extract of the present invention was diluted to concentrations ranging […], and the minimum concentration inhibiting the growth of three strains of P. acnes was determined. Specifically, the minimum bactericidal concentration was measured using a plate measuring the MIC of <3-1>.

[3] = test system: P. acnes 3314 (KCTC 3314); assay: MIC for acne bacteria, P. acnes 3314; type: cell-based, Propionibacterium acnes; details: P. acnes 3314, 72 hours, anaerobic
Description: as §1

[4] = test system: P. acnes 5012 (KCTC 5012); assay: MIC for acne bacteria, P. acnes 5012; type: cell-based, Propionibacterium acnes; details: P. acnes 5012, 72 hours, anaerobic
Description: as §1

[5] = test system: P. acnes 3314 (KCTC 3314); assay: MBC analysis for acne bacteria, P. acnes 3314; type: cell-based, Propionibacterium acnes; details: for MBC, concentration of highest growth inhibition effect: P. acnes 3314, 72-hour; for MBC, concentration of highest growth inhibitory effect: P. acnes 3314, 48 hr
Description: as §2

[6] = DPPH analysis (antioxidant effect); details: 500 μg/ml
Description: DPPH analysis was performed to confirm the antioxidant effect of grape callus culture solution. Specifically, 0.2 mM DPPH (1,1-Diphenyl-2-picryhydrazyl) solution was prepared using 80% methanol, and then 180 μl of DPPH and 20 μl of the sample were well mixed and reacted at room temperature for 10 minutes, and then absorbance was measured with an ELISA reader at 517 nm. On the other hand, the sample was diluted based on epsilon-Viniferin content and treated in a well for comparison with Viniferin. In addition, the control method used DPPH reagent in the dilution solvent of the sample instead of the sample. Ascorbic acid was treated as a positive control.

[7] = test system: P. acnes 5012 (KCTC 5012); assay: MBC analysis for acne bacteria, P. acnes 5012; type: cell-based, Propionibacterium acnes; details: for MBC, concentration of highest growth inhibition effect: P. acnes 5012, 72-hour; for MBC, concentration of highest growth inhibitory effect: P. acnes 5012, 48 hr
Description: as §2

[8] = test system: MNT-1 (human melanoma cell); assay: MTT assay cytotoxicity, MNT-1 cells; type: cell-based; details: 24 h
Description: (§3) MTT assay was performed using MNT-1, Raw264.7 cells to confirm the cytotoxicity of grape callus cultures, epsilon-Viniferin and delta-Viniferin. Specifically, Raw264.7 (murine macrophage) was incubated at 37° C., 5% CO2 in DMEM (High glucose) medium with 10% FBS and 1% gentamicine added, and MNT-1 (human melanoma cell) was incubated at 37° C., 5% CO2 in DMEM/MEM (High glucose) medium with 20% FBS and 1% gentamicine added. MNT-1 (10^4 cell/well) and Raw264.7 (2×10^4 cell/well) were each incubated in 96 wells, the samples were diluted with medium and treated in each well. After 24 hours, the MTT solution was treated at a concentration of 100 μg/mL and reacted at 37° C., 5% CO2 incubator for 1 hour. All cultures were then removed, 100 μl of acid-isopropanol was added to each well, and absorbance was measured with an ELISA reader at 570 nm. In addition, the sample was diluted based on epsilon-Viniferin content and treated in a well for comparison with Viniferin.

[9] = test system: P. acnes 3320; assay: Disc diffusion test; type: cell-based, Propionibacterium acnes; details: for clear zone diameter, 1: column 1; for clear zone diameter, 2: column 2
Description: The disc diffusion test is an antibacterial agent sensitivity test method of bacteria, and if there is an antibacterial effect, a clear zone is formed around the disk paper, and the antibacterial ability can be measured through the degree of clear zone formation. Specifically, P. acnes 3320 was incubated in 5 ml of RCM liquid medium in an incubator at 37° C. for 72 hours under anaerobic conditions. Then, the bacteria diluted with 5×10^5 1×10^6 were moistened with a cotton swab and evenly smeared on RCM agar medium. The disk paper was placed on an agar plate, the disk paper was moistened with a sample of the stock solution, and then incubated in a 72-hour 37° C. incubator under anaerobic conditions, and then the clear zone size was measured using a Vernier Caliper.

[10] = test system: Raw264.7 (murine macrophage); assay: MTT assay cytotoxicity, Raw264.7 cells; type: cell-based; details: mouse, 24 h
Description: as §3

Row | Structure (SMILES) | MIC, average concentration that inhibits growth [1] | MBC, concentration of highest growth inhibition effect [2] | MBC, concentration of highest growth inhibitory effect [2] | MIC, average concentration that inhibits growth [3] | MIC, average concentration that inhibits growth [4] | MBC, concentration of highest growth inhibition effect [5] | MBC, concentration of highest growth inhibitory effect [5] | radical scavenging activity (DPPH) compared to the control group [6] | MBC, concentration of highest growth inhibition effect [7] | MBC, concentration of highest growth inhibitory effect [7] | concentration showing no cytotoxicity (MTT) [8] | clear zone diameter, Average ([9]; ε-viniferin 5 μg) | clear zone diameter, 1 ([9]; ε-viniferin 5 μg) | clear zone diameter, 2 ([9]; ε-viniferin 5 μg) | clear zone diameter, Average ([9]; ε-viniferin 10 μg) | clear zone diameter, 1 ([9]; ε-viniferin 10 μg) | clear zone diameter, 2 ([9]; ε-viniferin 10 μg) | concentration showing no cytotoxicity (MTT) [10]
1 | Oc1ccc(C2Oc3ccc(/C=C/c4cc(O)cc(O)c4)cc3C2c2cc(O)cc(O)c2)cc1 (stereo not drawn) [delta-Viniferin, trans-δ-Viniferin] | did not show growth inhibition | did not show growth inhibition | did not show growth inhibition | did not show growth inhibition | did not show growth inhibition | did not show growth inhibition | did not show growth inhibition | approximately 25% | did not show growth inhibition | did not show growth inhibition | – | – | – | – | – | – | – | –
2 | Oc1ccc(/C=C/c2cc(O)cc3c2C(c2cc(O)cc(O)c2)C(c2ccc(O)cc2)O3)cc1 (stereo not drawn) [epsilon-Viniferin, trans-ε-viniferin] | did not show growth inhibition | did not show growth inhibition | did not show growth inhibition | did not show growth inhibition | did not show growth inhibition | did not show growth inhibition | did not show growth inhibition | approximately 25% | did not show growth inhibition | did not show growth inhibition | ≤ 20000 ng/mL | 0 mm | 0 mm | 0 mm | 0 mm | 0 mm | 0 mm | ≤ 20000 ng/mL
